For one data set, the target named is T1, NURR-1/RXRγ (Homo sapiens, UniProt P48443).
T1 construct: expressed in transfected cells; host or cells: Cos-7 cells
The experiment in a line: Transactivation test, NURR-1-Gal4/RXRγ, luciferase reporter in Cos-7 cells. The format is cell-based. The following applies: for Emax: COS-7, induction level relative to reference XCT0135908 at 2×10^−5 M (=100%), read-out: hNurr1_RXRgFL Emax (%); for EC50: Cos-7 cells, NURR-1-Gal4/RXRγ, luciferase reporter, read-out: hNurr1_RXRgFL EC50. In general terms: A reporter such as luciferase makes a cellular process visible.

The nature of data set [1]: Brain penetration in rats after intravenous administration. Type of data set: in vivo. The following applies: rat; for Kp at 4 h: male, Wistar, intravenous, 4 mg/kg, ratio of Cmax brain to Cmax plasma after the 4 hours of infusion, rats, read-out: Kp (partition coefficient between the brain and the plasma); for Cmax at 4 h: male Wistar rats, 4 mg/kg iv infusion into the jugular vein for 4 hours, plasma at end of infusion. Put shortly: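 Male Wistar rats (250-300 g, fed, n=4) received test compound by 4-hour jugular vein infusion at 4 mg/kg in 2% Cremophor EL/0.9% NaCl. At the end of infusion, plasma and brain homogenate were analysed by LC-MS/MS; Kp is the brain-to-plasma concentration ratio after 4 hours.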

This is an account of results in patent publication US20170066717A1, “NEW PHENYLAZETIDINECARBOXYLATE OR -CARBOXAMIDE COMPOUNDS” (INVENTIVA, priority 2014, published 2017).

T1 sequence (P48443 whole entry): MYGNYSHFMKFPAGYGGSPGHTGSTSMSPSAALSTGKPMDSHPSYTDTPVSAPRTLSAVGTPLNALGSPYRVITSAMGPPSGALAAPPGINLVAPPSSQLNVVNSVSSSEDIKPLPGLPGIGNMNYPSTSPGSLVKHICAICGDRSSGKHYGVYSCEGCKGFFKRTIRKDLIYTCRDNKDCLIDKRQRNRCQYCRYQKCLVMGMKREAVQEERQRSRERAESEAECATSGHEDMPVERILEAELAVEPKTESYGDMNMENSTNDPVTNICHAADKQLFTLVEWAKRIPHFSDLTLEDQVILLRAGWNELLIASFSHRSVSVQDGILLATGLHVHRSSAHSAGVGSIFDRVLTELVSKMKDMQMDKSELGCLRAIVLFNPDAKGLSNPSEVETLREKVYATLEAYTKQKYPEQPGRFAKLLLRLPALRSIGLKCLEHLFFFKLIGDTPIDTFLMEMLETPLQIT
T1 sequence (P43354 whole entry partner): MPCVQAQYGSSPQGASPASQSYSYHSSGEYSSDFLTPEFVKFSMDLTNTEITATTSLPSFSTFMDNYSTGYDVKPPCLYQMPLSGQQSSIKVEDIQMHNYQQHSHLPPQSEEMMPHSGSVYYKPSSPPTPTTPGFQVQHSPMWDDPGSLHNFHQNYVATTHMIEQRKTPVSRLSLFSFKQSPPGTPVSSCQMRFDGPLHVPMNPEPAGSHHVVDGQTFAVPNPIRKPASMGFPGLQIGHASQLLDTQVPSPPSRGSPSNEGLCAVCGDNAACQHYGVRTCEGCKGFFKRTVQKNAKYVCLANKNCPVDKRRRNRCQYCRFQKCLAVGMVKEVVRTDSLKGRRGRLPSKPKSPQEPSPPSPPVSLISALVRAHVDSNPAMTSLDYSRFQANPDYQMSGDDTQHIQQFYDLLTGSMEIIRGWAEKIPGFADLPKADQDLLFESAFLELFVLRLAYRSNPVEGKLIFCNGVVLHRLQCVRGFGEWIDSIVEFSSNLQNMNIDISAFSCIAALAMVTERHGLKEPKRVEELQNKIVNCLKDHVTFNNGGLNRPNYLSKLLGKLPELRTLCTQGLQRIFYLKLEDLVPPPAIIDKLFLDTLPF
T1 sequence (P04386 1-147 partner limits assumed): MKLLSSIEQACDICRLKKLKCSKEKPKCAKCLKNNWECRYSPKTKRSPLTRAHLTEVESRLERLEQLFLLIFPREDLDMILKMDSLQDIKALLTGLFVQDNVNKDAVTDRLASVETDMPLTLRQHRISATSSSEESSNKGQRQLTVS

As a reminder, the Emax is the size of the effect at its maximum, as opposed to the concentration needed. By EC50 is commonly meant the concentration giving half of the maximal effect. A word on the Kp: it is tissue or fluid exposure divided by exposure in the circulation. A word on the Cmax: it is the maximum level reached in the sampled fluid or tissue. Turning to `CC1(C)CCC(C)(C)c2cc(-c3cccc(N4CC(C(=O)O)C4)c3)ccc21` [Example 10, 1-[5-(1,1,4,4-tetrametyltetralin-6-yl)phenyl]azetidine-3-carboxylic acid], on NURR-1/RXRγ, the Emax came out at 85% and the half-maximal effective concentration (EC50) was 24 nM. Also, in data set [1], the Kp at 4 h was determined as 1.28 and the Cmax at 4 h came out at 4300 ng/mL.

Regarding `CC(C)CC1CN(c2cccc(N3CC(C(=O)O)C3)c2)c2ccc(C(F)(F)F)cc2O1` (centres unmarked) [Example 118, 1-[3-[2-isobutyl-7-(trilfuoromethyl)-2,3-dihydro-1,4-benzoxazin-4-yl]phenyl]azetidine-3-carboxylic acid], at NURR-1/RXRγ, the Emax came to 80% and the EC50 was 47 nM. In data set [1], the Kp at 4 h is 0.35 and the peak level (Cmax at 4 h) was 3480 ng/mL.
